In patent US20110045101A1, “FUNGICIDAL SUBSTITUTED AZOLES” (E.I. Du Pont De Nemours and Company, priority 2009, published 2011):
Marks after values point to notes of the source that are not given here.

How the values were obtained:
Type in all cases: in vivo
Conditions in all cases: 100 = 100% disease control
[1] = tested on: Puccinia recondita f. sp. tritici; test: Test H: wheat leaf rust, test suspension sprayed after inoculation of wheat seedlings, visual disease rating
Method in brief: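 Wheat seedlings inoculated with P. recondita spores, held 24 h saturated at 20 °C, then 2 days in growth chamber at 20 °C; compound suspension (acetone/water with Trem 014) sprayed to run-off afterwards. Rated visually; 200 ppm (≈500 g/ha) unless marked *, which denotes 40 ppm.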

Septoria nodorum = test: Test F: wheat glume blotch on wheat seedlings, sprayed the day before inoculation, visual disease rating
Method in brief: (§1)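 Plants received a run-off spray at 200 ppm (equivalent to 500 g/ha) or, for starred values, 40 ppm. Formulation used acetone at 3% of volume in a 50/50 acetone/water mix carrying 250 ppm Trem® 014.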

Septoria tritici = test: Test G: wheat leaf blotch on wheat seedlings, sprayed the day before inoculation, visual disease rating
Method in brief: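 Visual disease ratings taken 19 days after transfer to a 20° C growth chamber, following 48 h in saturated atmosphere at 24° C. Seedlings had been sprayed to run-off one day before spore inoculation. Dose 200 ppm, or 40 ppm where starred.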

[2] = tested on: Erysiphe graminis f. sp. tritici; test: Test J: wheat powdery mildew on wheat seedlings, sprayed the day before inoculation, visual disease rating
Method in brief: as §1

Alternaria solani = test: Test D: tomato early blight, sprayed the day before inoculation, visual disease rating
Method in brief: as §1

[3] = tested on: Puccinia recondita f. sp. tritici; test: Test I: wheat leaf rust on wheat seedlings, sprayed the day before inoculation, visual disease rating
Method in brief: as §1

Botrytis cinerea = test: Test C: tomato Botrytis on tomato seedlings, sprayed the day before inoculation, visual disease rating
Method in brief: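 Rate: 200 ppm sprayed to run-off, corresponding to 500 g/ha; flagged values used 40 ppm. Vehicle was aqueous acetone (1:1) plus 250 ppm surfactant, compounds predissolved in acetone at 3% of volume. Plants were tomato seedlings.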

[4] = 200 ppm, 0 = no control relative to controls
[5] = 40 ppm (marked *), 0 = no control

| Structure (SMILES) | Test H disease control rating [1, 4] | Test F disease control rating (Septoria nodorum; [4]) | Test G disease control rating (Septoria tritici; [4]) | Test J disease control rating [2, 4] | Test D disease control rating (Alternaria solani; [4]) | Test I disease control rating [3, 4] | Test C disease control rating (Botrytis cinerea; [4]) | also measured |
| --- | --- | --- | --- | --- | --- | --- | --- | --- |
| N#Cc1ccc(F)c(-c2cnc(Cl)n2-c2ccc(Cl)nc2)c1F [compound 697] | 8% | 0% | 98% | 93% | 91% | 19% | 100% |  |
| COc1cc(F)c(-c2c(Cl)ncn2-c2ccc(OC(F)(F)F)cc2)c(F)c1 [compound 559] | 29% | 0% | 95% | 98% | 41% | 88% | 94% |  |
| Cc1nc(Br)c(Cc2c(F)cc(F)cc2F)n1-c1c(Cl)cccc1Cl [compound 538] | 27% | 0% | 99% | 100% | 0% | 100% | 99% |  |
| COc1cc(F)c(-c2c(Cl)nc(Br)n2-c2ccc(C)cc2F)c(F)c1 [compound 654] |  |  |  |  |  |  |  | Test H disease control rating ([1]; 40 ppm (marked *)): 100* %; Test F disease control rating (Septoria nodorum; 40 ppm (marked *)): 91* %; Test G disease control rating (Septoria tritici; 40 ppm (marked *)): 98* %; Test J disease control rating ([2]; 40 ppm (marked *)): 100* %; Test D disease control rating (Alternaria solani; 40 ppm (marked *)): 99* %; Test I disease control rating ([3]; 40 ppm (marked *)): 99* %; Test C disease control rating (Botrytis cinerea; 40 ppm (marked *)): 100* % |
| Cc1nc(Cl)n(-c2ccc(Cl)c(F)c2)c1-c1sc(Cl)nc1Cl [compound 381] | 0% | 0% | 78% | 0% | 0% | 0% | 94% |  |
| Cc1nc(Cl)c(-c2c(F)cccc2F)n1-c1ccc2c(c1)OCCO2 [compound 470] |  |  |  |  |  |  |  | Test H disease control rating ([1]; 40 ppm (marked *)): 0* %; Test F disease control rating (Septoria nodorum; 40 ppm (marked *)): 0* %; Test G disease control rating (Septoria tritici; 40 ppm (marked *)): 92* %; Test J disease control rating ([2]; 40 ppm (marked *)): 87* %; Test D disease control rating (Alternaria solani; 40 ppm (marked *)): 99* %; Test I disease control rating ([3]; 40 ppm (marked *)): 99* %; Test C disease control rating (Botrytis cinerea; 40 ppm (marked *)): 99* % |
| Cc1nc(Br)n(-c2ccc(F)cc2Cl)c1-c1ccc(Cl)c(F)c1 [compound 325] | 0% | 51% | 96% | 99% | 91% | 97% | 94% |  |
| COc1ccc(Cl)c(-c2c(Cl)nc(Br)n2-c2ccc(Cl)cc2)c1F [compound 512] | 40% | 0% | 98% | 99% | 98% | 79% | 97% |  |
| CCc1cccc(-n2c(Br)nc(Cl)c2-c2c(F)ccc(OC)c2F)c1 [compound 398] | 0% | 79% | 96% | 100% | 80% | 79% | 100% |  |
| Cc1ncn(-c2ccc(Cl)c(F)c2)c1-c1ccnc(F)c1 [compound 319] | 6% | 0% | 98% | 81% | 24% | 28% | 99% |  |
| COc1cc(F)c(-c2cnc(Cl)n2-c2ccc(C(F)(F)F)nc2)c(F)c1 [compound 699] | 0% | 0% | 99% | 99% | 99% | 41% | 100% |  |
| Cc1nc(Cl)n(-c2ccc(F)cc2)c1-c1c(F)cc(F)cc1F [compound 492] |  |  |  |  |  |  |  | Test H disease control rating ([1]; 40 ppm (marked *)): 0* %; Test F disease control rating (Septoria nodorum; 40 ppm (marked *)): 0* %; Test G disease control rating (Septoria tritici; 40 ppm (marked *)): 82* %; Test J disease control rating ([2]; 40 ppm (marked *)): 0* %; Test D disease control rating (Alternaria solani; 40 ppm (marked *)): 100* %; Test I disease control rating ([3]; 40 ppm (marked *)): 0* %; Test C disease control rating (Botrytis cinerea; 40 ppm (marked *)): 94* % |
| COc1cc(F)c(-c2c(Cl)nc(C)n2-c2ccc(OC(F)F)cc2)c(F)c1 [compound 569] | 84% | 100% | 97% | 99% | 100% | 100% | 100% |  |
| N#Cc1ccc(-n2cnc(Cl)c2-c2c(F)ccc(C#N)c2F)cc1 [compound 387] | 0% | 0% | 0% | 0% | 0% | 0% | 0% |  |
| Fc1cc(-n2cnc(Cl)c2-c2c(F)cncc2F)ccc1Cl [compound 594] | 78% | 0% | 94% | 100% | 99% | 99% | 100% |  |
| COc1ccc(F)c(-c2c(Cl)nc(C)n2-c2ccc(C)c(F)c2)c1F [compound 590] |  |  |  |  |  |  |  | Test H disease control rating ([1]; 40 ppm (marked *)): 7* %; Test F disease control rating (Septoria nodorum; 40 ppm (marked *)): 94* %; Test G disease control rating (Septoria tritici; 40 ppm (marked *)): 96* %; Test J disease control rating ([2]; 40 ppm (marked *)): 100* %; Test D disease control rating (Alternaria solani; 40 ppm (marked *)): 100* %; Test I disease control rating ([3]; 40 ppm (marked *)): 100* %; Test C disease control rating (Botrytis cinerea; 40 ppm (marked *)): 100* % |
| Cc1nc(Cl)n(-c2ccc(Cl)cc2)c1-c1c(F)ccc(F)c1Cl [compound 414] |  |  |  |  |  |  |  | Test H disease control rating [1, 5]: 0* %; Test F disease control rating (Septoria nodorum; [5]): 0* %; Test G disease control rating (Septoria tritici; [5]): 96* %; Test J disease control rating [2, 5]: 100* %; Test D disease control rating (Alternaria solani; [5]): 99* %; Test I disease control rating [3, 5]: 93* %; Test C disease control rating (Botrytis cinerea; [5]): 99* % |
| COc1nn(C)c(-c2ccc(F)cc2Cl)c1-c1ccc(I)cc1 [compound 432] | 0% | 0% | 25% | 0% | 0% | 0% | 33% |  |
| Fc1ccc(-n2c(Cl)nc(Cl)c2-c2ccc(Cl)c(F)c2)c(Cl)c1 [compound 302] | 17% | 0% | 94% | 100% | 100% | 98% | 100% |  |
| Fc1cc(-n2c(Cl)nc(CCl)c2-c2ccc(Br)cn2)ccc1Cl [compound 357] | 0% | 100% | 50% | 0% | 0% | 55% | 63% |  |
